# Where “and” joins values, the source holds several entries; their conditions need not be identical. Equal values may be shown once. Read-outs that look alike come from different tables or passages of the source. Where no end group is shown, it is not given here. [ ]: non-standard residue; d: D form. The star is where a group is joined. FITC = O=C1OC2(c3ccc(O)cc3Oc3cc(O)ccc32)c2ccc(NC(=S)*)cc21; Ahx = NCCCCCC(=O)O
# T1: GST-Bcl-B (Homo sapiens, UniProt Q9HD36)
# T1 sequence (Q9HD36 1-182 limits assumed): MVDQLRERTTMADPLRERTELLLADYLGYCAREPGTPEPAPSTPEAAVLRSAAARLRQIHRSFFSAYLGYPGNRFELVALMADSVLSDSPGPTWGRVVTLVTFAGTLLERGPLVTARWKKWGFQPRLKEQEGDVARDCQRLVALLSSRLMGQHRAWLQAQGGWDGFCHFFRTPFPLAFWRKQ
# Assays:
# [1] = target: T2, GST-Bcl-2 (Homo sapiens, UniProt P10415); assay: biochemical
# Experimental: (§3) For the Chembridge screen, IC50s for each compound with respect to the Bcl-B/FITC-TR3 (In Hepes/β-glycerophophate/tween-20) fluorescence polarization and the Bcl-2/FITC-TR3 (In PBS+tween-20) fluorescence polarization assays were identified.
# (§4) Fluorescence polarization was then measured using an Analyst HT Multi-Mode Plate Reader (LJL Biosystems, Sunnyvale, Calif.).
# [2] = target: T1, GST-Bcl-B; assay: Bcl-B/FITC-TR3-r8 fluorescence polarization competition (displacement) assay, HTS and dose-response; settings: for Bcl-B H Coefficient: Hill coefficient of Bcl-B dose-response curve
# [3] = target: T1, GST-Bcl-B; assay: biochemical
# [4] = target: T2, GST-Bcl-2; assay: Bcl-2/FITC-TR3 fluorescence polarization competition assay (PBS + Tween-20); settings: Hill coefficient of Bcl-2 dose-response curve
# Experimental: as §3, §4
# [5] = target: GST-Hsp70 (Homo sapiens, UniProt P0DMV8); assay: FITC-ATP/GST-Hsp70 fluorescence polarization counter-screen; type: binding; settings: HSP/FITC-ATP counter screen
# Experimental: Dose-response curves were then generated (fluorescent compounds were eliminated), followed by counter-screening using a biologically unrelated FPA (GST-Hsp70/FITC-ATP).
# A number of assays were then performed to eliminate non-specific or irreproducible hits (FIG. 21). […] Second, compound dose-response curves were generated using the fluorescence polarization assay. […] Finally, 1D-NMR was used to test the compounds for binding to GST-Bcl-B versus GST (as a negative control) (FIG. 22).
# [6] = target: T1, GST-Bcl-B; assay: 1D 1H-NMR compound binding, GST-Bcl-B; parameters: their C-terminal transmembrane domains (˜20 amino acids) were deleted to enhance protein solubility; made in house; host or cells: E. coli (BL21 Star (DE3); XL-1 Blue), pGEX-4T-1; settings: result in words
# Experimental: (§1) FIGS. 22A-22F are line graphs showing a ^1H-NMR spectra confirmation of compound binding to Bcl-B. Compounds 5804000, 5954623, and 2011727 were diluted in PBS/D2O buffer to 1000 μM, then incubated with either GST (FIGS. 22A, C, E) or GST-Bcl-B (FIGS. 22B, D, F) at 0, 10 or 20 μM concentrations. FIGS. 22A-B show compound 5804000; FIGS. 22C-D show compound 5954623; and FIGS. 22E-F show the NMR spectra for the negative control compound 2011727. The most prominent peak shift for each compound is shown.
# (§2) NMR experiments were performed at 25° C. on a 500 MHz Bruker Avance spectrometer (Bruker, Madison, Wis.) equipped with a 5 mm TXI probe. […] Reference solutions were then used in titration experiments with GST-Bcl-B or GST. All ^1H NMR spectra were obtained with the carrier position set to the water peak signal using WATERGATE. NMR data were processed and analyzed with MestRe Nova (MestReLab Research, Santiago de Compostela, Spain).
# [7] = target: T1, GST-Bcl-B; assay: FITC-Puma-BH3/GST-Bcl-B fluorescence polarization displacement assay; type: binding; parameters: their C-terminal transmembrane domains (˜20 amino acids) were deleted to enhance protein solubility; made in house; host or cells: E. coli (BL21 Star (DE3); XL-1 Blue), pGEX-4T-1; settings: FIG. 23C; result in words
# [8] = test system: HeLa Tet-On-Bcl-B (HTO2) cells; assay: Cell viability (ATPlite) in HeLa Tet-On-Bcl-B cells with or without doxycycline; type: cell-based; settings: 24 h, 24 h, read-out: concentration required to reduce HeLa Tet-On-Bcl-B cell viability by 50%
# Experimental: FIG. 24A is a photograph of a blot wherein HeLa Tet-On (HTO1) and HeLa Tet-On-Bcl-B (HTO2) cells were treated with or without doxycycline (dox) for 24 h to induce their tetracycline-responsive promoters. Protein lysates were collected, and immunoblotting was used to analyze Bcl-B and Hsc70 (for loading control) expression. In FIG. 24B the cells were treated with or without doxycycline for 24 h, and then with staurosporine at the indicated concentrations for 24 h. Cell viability was measured using ATPlite. In FIG. 24C HeLa Tet-On-Bcl-B (HTO2) cells were treated with or without doxacycline as above. Compounds were then added at the indicated concentrations, and cell viability was measured 24 h later using ATPlite. The data shown represent mean±standard deviation (n=3).
# HeLa Tet-On-Bcl-B cells were generated by stably transfecting the HeLa Tet-On cell line (Clontech, Mountain View, Calif.) with a pTRE2hyg vector (Clontech) containing the Bcl-B gene, using lipofectAMINE PLUS (Invitrogen, Carlsbad, Calif.). Briefly, cells were seeded overnight and transfected at 50% confluency for 3 h. After 24 h, the cells were re-seeded at <10% confluence and cultured in media (DMEM with 10% Tet System Approved FBS (Clontech)) containing G418 (100 μg/mL) and hygromycin B (300 μg/mL) for pTet-On and pTRE2hyg/Bcl-B plasmid maintenance, respectively. Positive foci resistant to both antibiotics were expanded. Colonies were then cultured in the presence or absence of doxycycline (Clontech, 1 μg/mL) for 16 h, and induced Bcl-B expression was confirmed by Western blot analysis. A previously developed polyclonal Bcl-B antibody^17 and an Hsc70 antibody (for protein concentration comparison; Santa Cruz Biotechnology, Santa Cruz, Calif.) were used.
# Cells were seeded in 96-well plates at 5,000 cells/well in 100 μL of growth medium and allowed to incubate for 24 h. Afterwards, cells were incubated in the presence or absence of doxycycline (1 μg/mL) for another 24 h (to induce Bcl-B expression). Compounds were then added, as indicated, in a volume of 5 μL. The next day, cell viability was measured using the ATPlite Luminescence ATP Detection System (PerkinElmer, Waltham, Mass.) according to the manufacturer's specifications.
# [9] = target: T3, GST (Schistosoma japonicum, UniProt P08515); assay: 1D 1H-NMR compound binding, GST negative control; settings: negative control protein; result in words
# T3 construct: made in house; host or cells: Escherichia coli BL21 Star (DE3), pGEX-4T-1
# Experimental: as §1, §2
# [10] = target: T1, GST-Bcl-B; assay: FITC-Bim-BH3/GST-Bcl-B fluorescence polarization displacement assay; type: binding; parameters: their C-terminal transmembrane domains (˜20 amino acids) were deleted to enhance protein solubility; made in house; host or cells: E. coli (BL21 Star (DE3); XL-1 Blue), pGEX-4T-1; settings: FIG. 23D; result in words
# [11] = target: GST-Bcl-2 ΔTM [GST: P08515]; assay: fluorescence polarization, direct binding to GST-Bcl-2
# [12] = target: GST-Bcl-B ΔTM [GST: P08515]; assay: fluorescence polarization, 20 nM FITC-TR3-r8 with increasing GST-Bcl-B, HEPES/β-glycerophosphate buffer
# [13] = target: GST-Bcl-B ΔTM [GST: P08515]; assay: fluorescence polarization binding curves
# [14] = target: GST-Bcl-B ΔTM [GST: P08515]; assay: fluorescence polarization, 20 nM FITC-TR3-r8 with increasing GST-Bcl-B
# Sequence of GST-Hsp70 (P0DMV8 whole entry): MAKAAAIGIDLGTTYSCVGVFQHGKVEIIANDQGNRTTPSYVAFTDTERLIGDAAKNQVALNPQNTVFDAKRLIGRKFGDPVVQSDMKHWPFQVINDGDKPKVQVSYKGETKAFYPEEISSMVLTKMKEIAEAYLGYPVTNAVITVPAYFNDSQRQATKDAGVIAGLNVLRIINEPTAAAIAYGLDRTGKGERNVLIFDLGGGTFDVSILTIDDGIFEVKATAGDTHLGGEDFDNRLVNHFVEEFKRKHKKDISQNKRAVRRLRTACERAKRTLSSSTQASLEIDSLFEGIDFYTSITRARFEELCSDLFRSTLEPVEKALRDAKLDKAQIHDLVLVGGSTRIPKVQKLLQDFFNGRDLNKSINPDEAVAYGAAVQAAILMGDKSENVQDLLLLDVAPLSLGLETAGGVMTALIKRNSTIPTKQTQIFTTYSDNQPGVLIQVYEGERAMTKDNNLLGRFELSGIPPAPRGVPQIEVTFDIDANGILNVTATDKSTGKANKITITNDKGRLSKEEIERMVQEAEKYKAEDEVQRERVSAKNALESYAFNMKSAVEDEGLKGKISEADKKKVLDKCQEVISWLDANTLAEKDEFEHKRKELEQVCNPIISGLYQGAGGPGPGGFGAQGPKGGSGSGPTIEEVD
# T2 sequence (P10415 1-218 limits assumed): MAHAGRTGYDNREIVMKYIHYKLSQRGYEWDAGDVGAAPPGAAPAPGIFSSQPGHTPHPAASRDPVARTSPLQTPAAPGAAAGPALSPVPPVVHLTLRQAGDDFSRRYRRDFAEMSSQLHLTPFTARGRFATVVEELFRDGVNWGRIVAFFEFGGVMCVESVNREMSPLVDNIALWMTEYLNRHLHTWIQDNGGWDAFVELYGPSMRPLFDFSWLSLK
# T3 sequence (P08515 whole entry): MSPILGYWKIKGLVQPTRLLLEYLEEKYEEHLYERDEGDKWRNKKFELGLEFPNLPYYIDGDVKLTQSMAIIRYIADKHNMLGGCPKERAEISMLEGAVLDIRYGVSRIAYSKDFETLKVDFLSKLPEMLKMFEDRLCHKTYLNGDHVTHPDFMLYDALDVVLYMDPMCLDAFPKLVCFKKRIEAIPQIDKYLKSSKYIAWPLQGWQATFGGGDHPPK
molecule,measurement,setting,value
O=C(O)Cc1c[nH]c2ccc(O)cc12 [Compound 5106705],IC50,[1],9.83 µM and 9.78 µM
same,Bcl-B H Coefficient,[2],3.385
same,IC50,[3],7.88 µM and 7.84 µM
Nc1ccc(Oc2ccc(N)c(N)c2)cc1N [Compound 5152592],Bcl-2 H Coefficient,[4],1.428
same,IC50,[2]; Bcl-B IC50 (g/L),5.37 µM
same,IC50,[2]; Bcl-B IC50 (uM),5.37 µM
same,Bcl-B H Coefficient,[2],1.303
same,HSP70 IC50 (Hill),[5],High
Clc1ccc(C2C=C(c3ccccc3)Nc3ncnn32)cc1 (centres unmarked) [Compound 5223675],Bcl-B H Coefficient,[2],0.939
same,HSP70 IC50 (Hill),[5],high
same,IC50,[3],14.2 µM
O=S(=O)(O)c1cccc2cccc(Nc3ccccc3)c12 [Compound 5255876],IC50,[1],12.6 µM
same,IC50,[2]; Bcl-B IC50 (g/L),2.94 µM
same,IC50,[2]; Bcl-B IC50 (uM),2.95 µM
same,Bcl-B H Coefficient,[2],2.628
Oc1ccc(Nc2nc(-c3ccccn3)cs2)cc1 [Compound 5662807],Bcl-2 H Coefficient,[4],1.241
same,Bcl-B H Coefficient,[2],1.182
same,IC50,[3],3.69 µM
O=C(O)C1Nc2c(Cl)cc(Cl)cc2C2C=CCC12 (centres unmarked) [Compound 5736518],Bcl-2 H Coefficient,[4],2.956
same,Bcl-B H Coefficient,[2],1.13
same,IC50,[5]; read-out: HSP70 IC50 (Hill) (converted),37 µM
same,IC50,[3],1.03 µM
Cc1cc(C)nc(NC(=N)Nc2cccc(N)c2)n1 [Compound 5804000],binding to GST-Bcl-B by 1D-NMR,[6],bound to GST-Bcl-B in a concentration dependent manner
same,displacement of FITC-Puma-BH3 from GST-Bcl-B,[7],did not
same,IC50,"[8]; Homo sapiens, HeLa, in the absence of Bcl-B (without doxycycline)",~148 µM
same,IC50,"[8]; Homo sapiens, HeLa, in the presence of Bcl-B (with doxycycline)",~226 µM
same,binding to GST by 1D-NMR,[9],did not bind to GST
same,EC50,[2],5.6 µM
same,Bcl-B H Coefficient,[2],1.599
same,displacement of FITC-Bim-BH3 from GST-Bcl-B,[10],did not
same,IC50,[3],11.3 µM
Cc1ccc(C)n1-c1ccc(Cl)cc1C(=O)O [Compound 5950160],Bcl-2 H Coefficient,[4],1.457
same,Bcl-B H Coefficient,[2],0.9279
same,HSP70 IC50 (Hill),[5],high
same,IC50,[3],0.942 µM
Cc1ccc(C)n1-c1cc(C(=O)O)cc(C(=O)O)c1 [Compound 5950689],Bcl-2 H Coefficient,[4],0.6186
same,Bcl-B H Coefficient,[2],1.032
same,IC50,[3],0.542 µM
Cc1ccc(C)n1-c1ccc(Br)cc1C(=O)O [Compound 5954623],binding to GST-Bcl-B by 1D-NMR,[6],bound to GST-Bcl-B in a concentration dependent manner
same,displacement of FITC-Puma-BH3 from GST-Bcl-B,[7],displaced FITC-Puma-BH3
same,binding to GST by 1D-NMR,[9],did not bind to GST
same,EC50,[2],2.1 µM
same,Bcl-B H Coefficient,[2],1.233
same,displacement of FITC-Bim-BH3 from GST-Bcl-B,[10],displaced FITC-Bim-BH3
same,IC50,[3],15.6 µM and 16.3 µM
Cc1ccc(C)n1-c1ccc(C(=O)O)c(Cl)c1 [Compound 5956338],Bcl-2 H Coefficient,[4],1.653
same,Bcl-B H Coefficient,[2],0.9562
same,IC50,[3],9.96 µM
CC1=C(C#N)c2nc(N)c(C#N)c(C)c2/C1=C/c1ccc(-c2ccc(C(=O)O)c(Cl)c2)o1 [Compound 6025233],Bcl-2 H Coefficient,[4],3.081
same,Bcl-B H Coefficient,[2],1.206
same,HSP70 IC50 (Hill),[5],high
same,IC50,[3],1.65 µM
"O=C(O[C@@H]1Cc2c(O)cc(O)cc2O[C@@H]1c1cc(O)c(O)c(O)c1)c1cc(O)c(O)c(O)c1 [EGCG, epigallecatechin]",IC50,[8]; in the absence of Bcl-B (without doxycycline),79 µM
same,IC50,[8]; in the presence of Bcl-B (with doxycycline),~93 µM
same,displacement of FITC-TR3-r8 from GST-Bcl-B,[2]; result in words,none of these reagents displaced FITC-TR3-r8
{FITC-Ahx}-FSRSLHSLLG[Ahx][dR][dR][dR][dR][dR][dR][dR][dR] [FITC-TR3-9-r8],Kd,[11],< 0.1 µM
same,Kd,[12],0.02 µM
same,fold increase of affinity in HβG buffer against PBS buffer,[13],5 to 10 fold
same,Kd,[14],0.02 µM
